The structures appear in SMILES notation. Read-outs that look alike come from different tables or passages of the source.

Type in all cases: cell-based
One data set relates to HBV. As to the kind of experiment: HBV inhibitory activity in HepG2.2.15 cells (HBV DNA in culture medium by q-PCR). The note with it: HepG2.2.15 cells, 40,000 cells/well, 6 days of compound treatment, HBV DNA in culture medium by q-PCR, highest concentration 10 uM, read-out: EC50. How it is done:
(§1) • HepG2.2.15 (the HepG2.2.15 cell line can be produced by transfection of the HepG2 cell line as described in Sells, Chen, and Acs 1987 (Proc. Natl. Acad. Sci. USA 84: 1005-1009), and the HepG2 cell line is available from ATCC® under number HB-8065™)
(§2) Seed the cell HepG2.2.15 cells into 96-well plate in 2% FBS culture medium at the density of 40,000 cells/well and 5,000 cells/well for HBV inhibitory activity and cytotoxicity determination, respectively. After seeding, incubate the cell plates at 37° C., 5% CO2 overnight. The next day, medium containing compounds is added to the cell to treat the cells for 6 days with medium refreshed once in the middle of the treatment. 8 dose points with 3 folds dilution of each compound were adopted and the highest concentration of the compounds is 10 uM and 100 uM for HBV inhibitory activity and cytotoxicity determination, respectively.
The HBV DAN change in the cell culture medium induced by the compounds is measured by q-PCR method. Briefly, the HBV DNA in the culture medium is extracted using QIAamp 96 DNA Blood Kit according to the manual and then quantified by q-PCR using the primers and probe in the table below.
(§3) EC50 and CC50 values are calculated by the GRAPHPAD PRISM software.

Data set [1] in a line: Cytotoxicity determination in HepG2.2.15 cells (CCK-8). The note with it: human, HepG2.2.15 cells, HepG2.2.15 cells, 5,000 cells/well, 6 days of compound treatment, CCK-8 absorbance 450 nm, highest concentration 100 uM. The protocol:
as §1, §2
(§4) After 6 days of compounds treatment, add 20 μl CCK-8 reagents to each well of cytotoxicity assay plates, incubate the plate at 37° C., 5% CO2 for 2.5 h and measure the absorbance at 450 nm wavelength, at the same time read the absorbance at 630 nm wavelength as reference.
as §3

The next data set concerns HepG2.2.15 cells. The data set is described as above. As to conditions: HepG2.2.15 cells, 5,000 cells/well, 6 days of compound treatment, CCK-8 absorbance 450 nm, highest concentration 100 uM. The protocol:
as §1, §2, §4, §3

Setting [2] is: Hepatitis B virus, HepG2.2.15, 144 h.

For `CCOC(=O)C1=C(C2CCc3nn(CCC(=O)O)cc3C2)NC(c2nccs2)=NC1c1ccc(F)c(F)c1Cl` (single isomer, unassigned) [Compound 34a, 3-(5-(6-(2-chloro-3,4-difluorophenyl)-5-(ethoxycarbonyl)-2-(thiazol-2-yl)-3,6-dihydropyrimidin-4-yl)-4,5,6,7-tetrahydro-2H-indazol-2-yl)propanoic acid], the EC50 with HBV amounted to 385 nM. In data set [1], this compound came in with a CC50 at 6 days of 27500 nM.

Consider `CCOC(=O)C1=C(C2CCc3nn(CCC(=O)O)cc3C2)NC(c2nccs2)=NC1c1ccc(F)c(F)c1C` (single isomer, unassigned) [Compound 35b, 3-(5-(6-(3,4-Difluoro-2-methylphenyl)-5-(ethoxycarbonyl)-2-(thiazol-2-yl)-3,6-dihydropyrimidin-4-yl)-4,5,6,7-tetrahydro-2H-indazol-2-yl)propanoic acid], for which the EC50 in the data set on HBV worked out at 95.8 nM. The same compound displayed a 50% cytotoxic concentration (CC50) at 6 days in data set [1] of 20700 nM.

As for `CCOC(=O)C1=C(C2CCc3nn(CCC(=O)O)cc3C2)NC(c2nccs2)=NC1c1ccc(F)c(F)c1Br` (single isomer, unassigned) [Compound 36d, 3-(5-(6-(2-Bromo-3,4-difluorophenyl)-5-(ethoxycarbonyl)-2-(thiazol-2-yl)-3,6-dihydropyrimidin-4-yl)-4,5,6,7-tetrahydro-2H-indazol-2-yl)propanoic acid], the EC50 with HBV (setting [2]) is 87.9 nM. The compound also registered a half-maximal cytotoxic concentration (CC50) at 6 days in data set [1] of 9700 nM.

With `CCOC(=O)C1=C(C2CCc3nn(CCC(=O)O)cc3C2)NC(c2nccs2)=NC1c1ccc(F)cc1Cl` (single isomer, unassigned) [Compound 37b, 3-(5-(6-(2-Chloro-4-fluorophenyl)-5-(ethoxycarbonyl)-2-(thiazol-2-yl)-3,6-dihydropyrimidin-4-yl)-4,5,6,7-tetrahydro-2H-indazol-2-yl)propanoic acid], the EC50 in the data set with HBV is 175 nM. The compound further registered a CC50 at 6 days in data set [1] of 19600 nM.

For `CCOC(=O)C1=C(C2CCc3nn(CCC(=O)O)cc3C2)NC(c2nccs2)=NC1c1ccc(F)cc1C` (single isomer, unassigned) [Compound 38a, 3-(5-(5-(Ethoxycarbonyl)-6-(4-fluoro-2-methylphenyl)-2-(thiazol-2-yl)-3,6-dihydropyrimidin-4-yl)-4,5,6,7-tetrahydro-2H-indazol-2-yl)propanoic acid], the EC50 in the data set on HBV amounted to 14.5 nM. Also, half-maximal cytotoxicity in data set [1] (CC50 at 6 days) was put at 28200 nM.

For `CCOC(=O)C1=C(C2CCc3nn(CCC(=O)O)cc3C2)NC(c2nccs2)=NC1c1ccc(F)cc1Br` (single isomer, unassigned) [Compound 39b, 3-(5-(6-(2-Bromo-4-fluorophenyl)-5-(ethoxycarbonyl)-2-(thiazol-2-yl)-3,6-dihydropyrimidin-4-yl)-4,5,6,7-tetrahydro-2H-indazol-2-yl)propanoic acid], the half-maximal effective concentration (EC50) with HBV came out at 165 nM. For the same compound, the CC50 at 6 days in data set [1] was determined as 13100 nM.

Consider `CCOC(=O)C1=C(C2CCc3nn(CCC(=O)O)cc3C2)NC(c2nccs2)=NC1c1cccc(F)c1Cl` (single isomer, unassigned) [Compound 40b, 3-(5-(6-(2-Chloro-3-fluorophenyl)-5-(ethoxycarbonyl)-2-(thiazol-2-yl)-3,6-dihydropyrimidin-4-yl)-4,5,6,7-tetrahydro-2H-indazol-2-yl)propanoic acid], for which the EC50 in the data set with HBV is 480 nM. Also, the midpoint of cytotoxicity in data set [1], the CC50 at 6 days, lay at 21500 nM.

As for `CCOC(=O)C1=C(C2CCc3nn(CCC(=O)O)cc3C2)NC(c2nccs2)=NC1c1cccc(F)c1Br` (single isomer, unassigned) [Compound 42b, 3-(5-(6-(2-bromo-3-fluorophenyl)-5-(ethoxycarbonyl)-2-(thiazol-2-yl)-3,6-dihydropyrimidin-4-yl)-4,5,6,7-tetrahydro-2H-indazol-2-yl)propanoic acid], in the data set with HBV, the EC50 was 131 nM. Also, the CC50 at 6 days in data set [1] stood at 10200 nM.

For the compound `CCOC(=O)C1=C(C2CCc3nn(CCC(=O)O)cc3C2)NC(c2ncc(F)cc2F)=NC1c1ccc(F)c(F)c1Cl` (single isomer, unassigned) [Compound 43b, 3-(5-(6-(2-Chloro-3,4-difluorophenyl)-2-(3,5-difluoropyridin-2-yl)-5-(ethoxycarbonyl)-3,6-dihydropyrimidin-4-yl)-4,5,6,7-tetrahydro-2H-indazol-2-yl)propanoic acid], the EC50 in the data set on HBV amounted to 125 nM. Also, the CC50 at 6 days in data set [1] came to 31300 nM.

Take `COC(=O)C1=C(C2CCc3nn(CCC(=O)O)cc3C2)NC(c2nccs2)=NC1c1cccc(F)c1Cl` (single isomer, unassigned) [Compound 44b, 3-(5-(6-(2-Chloro-3-fluorophenyl)-5-(methoxycarbonyl)-2-(thiazol-2-yl)-3,6-dihydropyrimidin-4-yl)-4,5,6,7-tetrahydro-2H-indazol-2-yl)propanoic acid]: the concentration giving a half-maximal response (EC50) with HBV worked out at 383 nM. The compound also showed a CC50 at 6 days in data set [1] of 21000 nM.

On to `COC(=O)C1=C(C2CCc3nn(CCC(=O)O)cc3C2)NC(c2nccs2)=NC1c1cccc(F)c1Br` (single isomer, unassigned) [Compound 45b, 3-(5-(6-(2-Bromo-3-fluorophenyl)-5-(methoxycarbonyl)-2-(thiazol-2-yl)-3,6-dihydropyrimidin-4-yl)-4,5,6,7-tetrahydro-2H-indazol-2-yl)propanoic acid], for which, in the data set on HBV, the EC50 was determined as 213 nM. The compound further registered a CC50 at 6 days in data set [1] of 18200 nM.

Take `COC(=O)C1=C(C2CCc3nn(CCC(=O)O)cc3C2)NC(c2nccs2)=NC1c1ccc(F)c(F)c1Cl` (single isomer, unassigned) [Compound 70d, 3-(-5-(6-(2-chloro-3,4-difluorophenyl)-5-(methoxycarbonyl)-2-(thiazol-2-yl)-3,6-dihydropyrimidin-4-yl)-4,5,6,7-tetrahydro-2H-indazol-2-yl)propanoic acid]: the EC50 in the data set with HBV was found to be 8.03 nM. This compound also had a CC50 with HepG2.2.15 cells of 24300 nM.

Regarding `COC(=O)C1=C(C2CCc3nc([C@H]4C[C@H](C(=O)O)C4)oc3C2)NC(c2nccs2)=NC1c1ccc(F)c(F)c1Cl` (single isomer, unassigned) [Compound 72c, (trans)-3-(6-(6-(2-Chloro-3,4-difluorophenyl)-5-(methoxycarbonyl)-2-(thiazol-2-yl)-3,6-dihydropyrimidin-4-yl)-4,5,6,7-tetrahydrobenzo[d]oxazol-2-yl)cyclobutanecarboxylic acid], in the data set on HBV, the EC50 was determined as 90.2 nM. In addition, half-maximal cytotoxicity in the data set on HepG2.2.15 cells (CC50) was put at 8700 nM.

For the compound `COC(=O)C1=C(C2CCc3nn(CCCC(=O)O)cc3C2)NC(c2nccs2)=NC1c1ccc(F)c(F)c1Cl` (single isomer, unassigned) [Compound 74c, 4-(5-(6-(2-chloro-3,4-difluorophenyl)-5-(methoxycarbonyl)-2-(thiazol-2-yl)-3,6-dihydropyrimidin-4-yl)-4,5,6,7-tetrahydro-2H-indazol-2-yl)butanoic acid], the concentration for a half-maximal effect (EC50) in the data set with HBV came out at 9.1 nM. This compound also showed a CC50 with HepG2.2.15 cells of 18200 nM.

With `COC(=O)C1=C(C2CCc3nn(C(C)(C)CC(=O)O)cc3C2)NC(c2nccs2)=NC1c1ccc(F)c(F)c1Cl` (single isomer, unassigned) [Compound 82c, 3-(5-(-6-(2-chloro-3,4-difluorophenyl)-5-(methoxycarbonyl)-2-(thiazol-2-yl)-3,6-dihydropyrimidin-4-yl)-4,5,6,7-tetrahydro-2H-indazol-2-yl)-3-methylbutanoic acid], in the data set on HBV, the 50% effective concentration (EC50) turned out to be 6.5 nM. In the data set with HepG2.2.15 cells, the CC50 was 15100 nM.

`COC(=O)C1=C(C2CCc3nc([C@H]4CC[C@H](C(=O)O)CC4)oc3C2)NC(c2nccs2)=NC1c1ccc(F)c(F)c1Cl` (single isomer, unassigned) [Compound 86b, (trans)-4-(6-(6-(2-chloro-3,4-difluorophenyl)-5-(methoxycarbonyl)-2-(thiazol-2-yl)-3,6-dihydropyrimidin-4-yl)-4,5,6,7-tetrahydrobenzo[d]oxazol-2-yl)cyclohexanecarboxylic acid]: the EC50 in the data set on HBV (setting [2]) worked out at 64 nM. For the same compound, in the data set with HepG2.2.15 cells, the CC50 came to 8700 nM.

For `COC(=O)C1=C(C2CCc3nc([C@H]4CC[C@H](C(=O)O)CC4)oc3C2)NC(c2nccs2)=NC1c1ccc(F)c(F)c1Cl` (single isomer, unassigned) [Compound 86d, (trans)-4-(6-(6-(2-chloro-3,4-difluorophenyl)-5-(methoxycarbonyl)-2-(thiazol-2-yl)-3,6-dihydropyrimidin-4-yl)-4,5,6,7-tetrahydrobenzo[d]oxazol-2-yl)cyclohexanecarboxylic acid], the EC50 with HBV worked out at 61.4 nM. In the data set with HepG2.2.15 cells, this compound had a CC50 of 4300 nM.

Consider `CCOC(=O)C1=C(C2Cc3cn(CCC(=O)O)nc3C(C)(C)C2)NC(c2nccs2)=NC1c1ccc(F)c(F)c1Cl` (stereo not drawn) [Compound 55c, 3-(5-(6-(2-chloro-3,4-difluorophenyl)-5-(ethoxycarbonyl)-2-(thiazol-2-yl)-3,6-dihydropyrimidin-4-yl)-7,7-dimethyl-4,5,6,7-tetrahydro-2H-indazol-2-yl)propanoic acid], for which the EC50 in the data set with HBV worked out at 9.5 nM. Further, the CC50 in the data set on HepG2.2.15 cells is 7100 nM.

Source of the values: patent US20210220356A1, “DIHYDROPYRIMIDINE DERIVATIVES AND USES THEREOF IN THE TREATMENT OF HBV INFECTION OR OF HBV-INDUCED DISEASES” (Janssen Sciences Ireland Unlimited Company, priority 2018, published 2021).
